From patent publication US9034895B2, “Composition and methods for treating glioblastoma” (University of Washington Through its Center for …, priority 2010, dated 2015)

Tests used:
T98g cells = assay: Cell viability assay (WST-1), toxic potency and efficacy at T98g cells; format: cell-based; conditions: Homo sapiens, 72 h; for Emax: read-out: Toxic potency at T98g cells (percent efficacy); for EC50: read-out: Toxic potency at T98g cells potency μM; for cytotoxicity at 10 µM: read-out: Activity at killing T98g cells percent efficacy at 10 μM
Experimental: (§1) Cells were plated media supplemented with 10% serum in 96-well plates (10^4 cells per wellI; 0.1 ml per well). Once they reached ˜70% confluence, they were rinsed with PBS and kept for an additional 24 hrs in media supplemented with 1% serum, at which time drugs or vehicle (DMSO, 0.1%, prepared in 10 μl serum-free media) were directly added to each well. After 3 days, cell viability was assessed using the Cell Proliferation Reagent WST-1 (Roche, Indianapolis, Ind.). Briefly, WST-1 reagent (10 μl) was added to each well for 3 hrs at 37° C. with 5% CO2 and WST-1 products were read at 450 nm using Packard SpectraCount™.
Because the strongest toxic effect of WIN55212-2 was measured in T98g cells, these cells are used as readout to study the structure activity relationship (SAR) of AAI compounds at inducing cell death through AAI receptors.

[1] = tested on: protein expressed by NG108-15 cells; conditions: cited from earlier work
[2] = tested on: T98g, MDA231 and sknmc cells; assay: Cell viability assay, killing of CB1/CB2-lacking cell lines; format: cell-based, human; conditions: for potencies and efficacies at killing T98g, MDA231 and sknmc cells: in words
Experimental: as §1
The expression level of CB1 and CB2 mRNA is determined by qPCR in eight human cell lines and found three, T98g, MDA231 and sknmc cells, that lack CB1 and CB2 mRNA (Table 1).
Based on this evidence, it was determined if WIN55212-2 differentially kills T98g, MDA231 and sknmc cells, which provides an index of AAI receptor functionality in these cells. Also tested is Δ^9-THC (classic cannabinoid) and CP55940 (non-classical cannabinoid).

CB1 = target: T1, CB1 (Mus musculus, UniProt P47746); assay: Radioligand competition binding, [3H]-CP55940, CB1-expressing HEK293 membranes; conditions: FIG. 2 (CB1 not shown)
T1 construct: plasmids containing full coding region of mouse CB1 and CB2; expressed in transfected cells
Experimental: (§2) Stable CB1 and CB2 expressing HEK293 cell lines were generated using plasmids containing full coding region of mouse CB1 and CB2.
(§3) Fragments were amplified from total RNA of cell lines by reverse transcriptase-polymerase chain reaction (RT-PCR). Sequence was confirmed and the fragment was cloned into the EcoRI site of the pIRES2-eGFP-express vector. Cells were grown to approximately 80% confluence in 10 cm cell culture dishes, transfected with the cDNA pIRES-eGFP-vector containing the murine CB1 or CB2 receptor using LipofectAMINE™ 2000 reagent in the serum-free media Opti-MEM 1 according to the manufacturer's description. Cells were subject to FACS sorting 48 h after transfection and single cell sorted based on dsRed expression into 96-well plates. Of the dsRed expressing positive clones, 3 were validated for CB1 and CB2 protein expression by radioligand binding analysis (methods discussed below).
(§4) Cells were grown to 90% confluence, rinsed twice with 1×PBS and stored at −80° C. until further use. To prepare crude cellular membrane fractions, dishes were removed from −80° C. and thawed at room temperature for 5 min. Once thawed, cells were lysed with ice-cold homogenization buffer (50 mM Tris, 1 mM EDTA, 3 mM MgCl2) and gently scraped from the dish. Total cell lysates from 3-5 dishes were collected on ice in 3 ml of ice-cold homogenization buffer. Cells were homogenized at 6,500 rpm (PRO Scientific, Oxford, Conn.) twice for 10 sec and centrifuged at 11,500 rpm for 20 min at 4° C. Supernatants were discarded and cell pellets were resuspended in homogenization buffer and triturated 10 times in ice-cold homogenization buffer. Crude cellular membrane homogenates were stored at −80° C. until further use. On the day of experiments, frozen homogenates were thawed at room temperature, gently triturated 10 times and subsequently dounce homogenized in a 7 ml glass tissue grinder (Wheaton Science Products, Millville, N.J.) by 5 strokes while on ice. […]

CB2 = target: T2, CB2 (Mus musculus, UniProt P47936); assay: Radioligand competition binding, [3H]-CP55940, CB2-expressing HEK293 membranes; conditions: FIG. 2
T2 construct: plasmids containing full coding region of mouse CB1 and CB2; expressed in transfected cells
Experimental: as §2, §3, §4

[3] = tested on: hippocampal slices prepared from CB1−/− mice; conditions: blocked by capsazepine; cited from earlier work
[4] = tested on: homogenates prepared from CB1−/− mice cerebellum; conditions: insensitive to SR144528; cited from earlier work

T1 sequence (P47746 whole entry): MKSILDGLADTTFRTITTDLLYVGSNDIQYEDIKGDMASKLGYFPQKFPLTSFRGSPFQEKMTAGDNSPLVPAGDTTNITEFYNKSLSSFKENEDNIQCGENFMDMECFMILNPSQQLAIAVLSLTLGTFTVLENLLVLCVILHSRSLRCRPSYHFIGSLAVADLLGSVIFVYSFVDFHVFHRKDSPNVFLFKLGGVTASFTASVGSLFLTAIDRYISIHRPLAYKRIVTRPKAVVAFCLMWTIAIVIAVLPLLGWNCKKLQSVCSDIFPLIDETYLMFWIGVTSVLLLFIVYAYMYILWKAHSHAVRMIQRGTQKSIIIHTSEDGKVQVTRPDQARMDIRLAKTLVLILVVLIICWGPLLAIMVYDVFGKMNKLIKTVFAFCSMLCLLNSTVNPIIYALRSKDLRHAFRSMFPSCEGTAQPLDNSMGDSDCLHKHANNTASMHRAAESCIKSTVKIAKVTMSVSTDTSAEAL
T2 sequence (P47936 whole entry): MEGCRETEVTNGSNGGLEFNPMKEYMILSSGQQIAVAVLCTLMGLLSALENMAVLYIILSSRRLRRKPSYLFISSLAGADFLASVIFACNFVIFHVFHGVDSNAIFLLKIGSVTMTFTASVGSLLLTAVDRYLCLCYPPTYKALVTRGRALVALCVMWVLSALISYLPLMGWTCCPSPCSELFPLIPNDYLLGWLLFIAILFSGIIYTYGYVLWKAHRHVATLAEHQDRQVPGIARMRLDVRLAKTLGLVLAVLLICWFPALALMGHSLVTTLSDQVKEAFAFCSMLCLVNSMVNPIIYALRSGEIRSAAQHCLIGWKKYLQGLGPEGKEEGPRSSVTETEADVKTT

Compound | Emax (T98g cells) [%] | EC50 (T98g cells) [µM] | cytotoxicity at 10 µM (T98g cells) [%] | also measured
Cc1ccc(C(=O)c2c(C)n(C)c3ccccc23)c2ccccc12 [JWH-450, (1,2-dimethyl-1H-indol-3-yl)(4-methylnaphthalen-1-yl)methanone] | 66 | 2 |  | 
O=C1CCCc2c1c1ccccc1n2Cc1ccccc1 [TK7] |  |  | 19 | 
Cc1ccc(C(=O)c2c(C)n(CCN3CCOCC3)c3cc(Cl)ccc23)c2ccccc12 [CBX-004, (6-chloro-2-methyl-1-(2-morpholinoethyl)-1H-indol-3-yl)(4-methylnaphthalen-1-yl)methanone] | 68 | 2 |  | 
Cc1ccc(C(=O)c2c(C)n(CCN3CCOCC3)c3ccc(Cl)cc23)c2ccccc12 [CBX-002, (5-chloro-2-methyl-1-(2-morpholino ethyl)-1H-indol-3-yl)(4-methylnaphthalen-1-yl)methanone] | 45 | 30 |  | 
CCCn1c(C)c(C(=O)c2cccc3ccccc23)c2ccccc21 [JWH-015, (2-methyl-1-propyl-1H-indol-3-yl)(naphthalen-1-yl)methanone] | 58 | 1.3 |  | 
CCn1c(C)c(C(=O)c2cccc3ccccc23)c2ccccc21 [JWH-043] | 84 | 6.9 |  | 
Cc1c(C(=O)c2cccc3ccccc23)c2ccccc2n1C [JWH-042] | 71 | 3.1 |  | 
Cc1c(C(=O)c2cccc3ccccc23)c2cccc3c2n1[C@@H](CN1CCOCC1)CO3 [WIN55212-2] | 87 | 1.5 |  | binding affinity to a protein expressed by NG108-15 cells [1]: nanomolar affinity; EC50 ([2]; Homo sapiens, range over the three cell lines (FIG. 1), read-out: potency at killing T98g, MDA231 and sknmc cells): 1500 to 2900 nM; gradual toxic efficacy across cell lines ([2]; rank order of cell lines): T98g>MDA>sknmc; competition for [3H]-CP55940 binding at CB1 (CB1): competes; competition for [3H]-CP55940 binding at CB2 (CB2): competes; excitatory transmission [3]: inhibit; [35S]-GTPγS binding [4]: increase
COCCn1c(C)c(C(=O)N2CCC3(CC2)NC(=O)N(C)C3=O)c2ccccc21 [TK-8] | 55 | 886 |  | 
COc1ccc(C(=O)c2c(C)n(CCN3CCOCC3)c3ccccc23)cc1 [Pravadoline] | 88 | 22 |  | 
O=C(c1cccc2ccccc12)c1cn(CCN2CCOCC2)c2ccccc12 [JWH-200] | 48 | 21 |  | 
Cc1nccn1CC1CCc2c(c3ccccc3n2C)C1=O (centres unmarked) [TK3] |  |  | 11 | 
CC(=O)c1c(C)n(CCOc2cccc3ccccc23)c2ccccc12 [TK-15] | 62 | 45 |  | 
CCCCCc1cc(O)c2c(c1)OC(C)(C)[C@@H]1CCC(C)=C[C@@H]21 [THC] |  |  |  | potencies and efficacies at killing T98g, MDA231 and sknmc cells [2]: inconsistent potencies and efficacies
CCCCCCC(C)(C)c1ccc([C@@H]2C[C@H](O)CC[C@H]2CCCO)c(O)c1 [CP55940] |  |  |  | competition for WIN-2 binding in NG108-15 cells [1]: did not compete; potencies and efficacies at killing T98g, MDA231 and sknmc cells [2]: inconsistent potencies and efficacies
CCCn1c(C)c(C(=O)c2ccc(C)c3ccccc23)c2ccccc21 [JWH-148] | 48 | 2 |  | 
Cc1c(C(=O)C(F)(F)F)c2ccccc2n1CC(=O)NCc1ccccc1 [TK6] |  |  | 8 | 

Compound | Emax (T98g cells) [%] | EC50 (T98g cells) [µM] | cytotoxicity at 10 µM (T98g cells) [%] | also measured
Cc1ccc(C(=O)c2c(C)n(CCN3CCOCC3)c3ccccc23)c2ccccc12 [TK-18] | 48 | 3 |  | 
Cc1ccc(C(=O)c2c3n(c4ccccc24)CCCC3)c2ccccc12 [CBX-005, (4-methylnaphthalen-1-yl)(6,7,8,9-tetrahydropyrido[1,2-a]indol-10-yl)methanone] | 64 | 1.2 |  | 
Cc1c(CNN2CCOCC2)nn(C)c1C [TK-1] |  |  | 6 | 
Cc1ccc(C(=O)c2c(C)n(CCN3CCOCC3)c3ncccc23)c2ccccc12 [CBX-003, (2-methyl-1-(2-morpholino ethyl)-1H-pyrrolo[2,3-b]pyridin-3-yl)(4-methylnaphthalen-1-yl)methanone] | 71 | 5 |  | 
Cc1c(C(=O)Cn2cnc3ccccc3c2=O)c2ccccc2n1C [TK5] |  |  | 3 | 
CCCCCn1cc(C(=O)c2cccc3ccccc23)cc1-c1cc(C)cc(O)c1 [JWH-370] |  |  | 11 | 
COc1ccc2c(c1)c(C(O)N1CCCC(c3nnc4ccccn34)C1)c(C)n2C (centres unmarked) [TK12] |  |  | 16 | 
CC(=O)c1c(C)n(CCOc2ccccc2)c2ccccc12 [TK-2] | 81 | 3.1 |  | 
Cc1ccc(C(=O)c2c(C)n(CCN3CCOCC3)c3cc(Cl)cc(Cl)c23)c2ccccc12 [CBX-007, (4,6-dichloro-2-methyl-1-(2-morpholino ethyl)-1H-indol-3-yl)(4-methylnaphthalen-1-yl)methanone] | 56 | 0.6 |  | 
CC(=O)c1c(C)n(CCCOc2ccccc2)c2ccccc12 [TK-14] | 92 | 40 |  | 
CCCn1cc(C(=O)c2ccc(C)c3ccccc23)c2ccccc21 [JWH-120] |  |  | 0 | 
COc1ccc2c(c1)c(C(=O)N1CCCC(c3nnc4ccccn34)C1)c(C)n2C (centres unmarked) [TK11] |  |  | 10 | 
COCCn1cc(C(=O)N2CCCC(CN(C)C)C2)c2ccccc21 (centres unmarked) [TK9] |  |  | 0 | 
CC1=C(CCN2C(=O)COc3ccccc32)c2ccccc2C1C (centres unmarked) [TK4] |  |  | 10 | 
Cn1cc(C(=O)N2CCCc3ccccc32)c2ccccc21 [TK10] |  |  | 0 | 
Cc1c(C(=O)c2ccccc2)c2ccccc2n1CC(=O)N1CCOCC1 [TK16] |  |  | 3 | 
